Entries after “also recorded” stand apart in the source; their conditions may differ. Peptide text beside a SMILES is read from it. * marks the point of attachment. Cbz = O=C(OCc1ccccc1)*
B1: OPG: Osteoprotegerin, decoy receptor that binds RANKL; used as control in osteoclastogenesis assay (protein, UniProt O00300 22-401, looked up)
Tumor necrosis factor …: ETFPPKYLHYDEETSHQLLCDKCPPGTYLKQHCTAKWKTVCAPCPDHYYTDSWHTSDECLYCSPVCKELQYVKQECNRTHNRVCECKEGRYLEIEFCLKHRSCPPGFGVVQAGTPERNTVCKRCPDGFFSNETSSKAPCRKHTNCSVFGLLLTQKGNATHDNICSGNSESTQKCGIDVTLCEEAFFRFAVPTKFTPNWLSVLVDNLPGTKVNAESVERIKRQHSSQEQTFQLLKLWKHQNKDQDIVKKIIQDIDLCENSVQRHIGHANLTFEQLRSLMESLPGKKVGAEDIEKTIKACKPSDQILKLLSLWRIKNGDQDTLKGLMHALKHSKTYHFPKTVTQSLKKTIRFLHSFTMYKLYQKLFLEMIGNQVQSVKISCL

Key:
[1] = system: MCF-7 and ARCaP-E cells over expressing Snail; assay: In vitro cell invasion assay (Matrigel); assay type: cell-based, human; conditions: 5 μM Z-FY-CHO for 72 hours; invasion 24 hours
Experimental: The invasive properties of the cell lines were measured using the BD BioCoat Matrigel Invasion guidelines. Briefly, Boyden chamber inserts (Thermo Fisher Scientific, Waltham, Mass., USA) were coated with 40 μl 1:4 Matrigel and allowed to solidify at 37° C. for 1 h. 5×10^4 cells were seeded in triplicate in 0.1% FBS, while the lower chamber contained 10% FBS. Cells were allowed to invade through the porous membrane coated with Matrigel at 37° C. for 24-72 h. Inserts were fixed, stained with 0.05% crystal violet. Cell counts were performed for the determination of relative cell invasion.
FIGS. 4C and 4D represent cell invasion of the same cell lines. 5×10^4 cells were plated on transwells coated with Matrigel. Cell invasion was allowed to take place for 24 hours. The number of cells that invaded through the transwell membranes were determined by counting at least 4 random microscopic fields. Compared to neo empty vector cells overexpressing Snail represent an increase in migration and invasion. MSKE and Z-FY-CHO decrease migratory and invasive cells. Asterisks represent p-value of statistical significance (n=3, ***p<0.001, **p<0.01, *p<0.05). Values were normalized to untreated controls and the mean±SEM of data were obtained from three independent replicate experiments with at least three wells per treatment group in each individual replicate. Statistical analysis was done with Student t test.

[2] = system: ARCaP-Snail/MCF-7 Snail co-cultured with spleen macrophages; assay: In vitro osteoclastogenesis assay (TRAP staining of mature osteoclasts); assay type: cell-based, human; conditions: vs untreated control
Experimental: We obtained MSKE from Dr Tamaro Hudson, our collaborator from Howard University and used it to perform osteoclastogenesis assay on prostate and breast cancer cell lines, including one in which Snail, a transcription factor, is overexpressed. 3×10^3 ARCaP-Neo/MCF-7 Neo or ARCaP-Snail/ MCF-7 Snail was co-cultured with 40×10^4 spleen macrophages in 48-well plates plus 1 ng/ml M-CSF plus or minus 5 μg/ml MSKE, 20 μg/ml MSKE, and 5 μM Z-FY-CHO CatL inhibitor.
The cells were fed every three days by replacing half the media with fresh media plus or minus MSKE or Z-FY-CHO. Macrophages alone were utilized as a negative control. After 7-14 days the cells were fixed with 3% formaldehyde and processed for TRAP staining according to manufacturer instructions, to visualize the formation of mature osteoclasts.
3×10^3 ARCaP-Neo/MCF-7 Neo or ARCaP-Snail/MCF-7 Snail was co-cultured with 40×10^4 spleen macrophages in 48-well plates plus 1 ng/ml M-CSF plus or minus 5 μg/mL MSKE, 20 μg/mL MSKE or […] Z-FY-CHO Cat L inhibitor. […]
3×10^3 or 1×10^3 prostate cancer cells overexpressing Snail (see FIG. 5) and breast cancer cells overexpressing Snail (FIG. 6) were co-cultured with 40×10^4 Macrophages for 14 days and treated with 50 ng/mL osteoprotogerin (control), 5 μM Z-FY-CHO, 5 μg/mL or 20 μg/ML MSKE. […] Osteoclasts were determined by having 3 or more nuclei (FIGS. 5 and 6 insets). […]

[3] = system: mature CatL; assay: Western blot analysis, mature CatL; assay type: cell-based, human; conditions: 5 μM Z-FY-CHO, 72 h
Experimental: (§1) We also performed Western blot analysis of whole cell lysates obtained from untreated control and MSKE treatments. ARCaPE and MCF-7 cells over expressing Snail were treated with MSKE for 3 days, and probed for Snail, phosph-STAT-3 (p-STAT3), and […] Western blot analysis.
(§2) Cells were lysed in a modified RIPA buffer (50 mM Tris pH 8.0, 150 mM NaCl, 0.02% NaN3, 0.1% SDS, 1% NP-40, 0.5% sodium deoxycholate) containing 1.5× protease inhibitor cocktail, 1 mM phenylmethylsufonyl fluoride (PMSF), and 1 mM sodium orthovanadate. Whole cell lysates were freeze-thawed at −80° C./4° C. for three cycles, then centrifuged at 13,000 rpm for 30 min at 4° C. Supernatants were collected and quantified using a micro BCA assay (Promega, Madison, Wis.). 40 μg of cell lysate was resolved using 10% SDS PAGE, followed by transblotting onto nitrocellulose membrane (Bio-Rad Laboratories, Hercules, Calif.). Membranes were blocked with 3% milk (TBS-T containing 3% milk), then washed and incubated with primary antibody dilution buffer. […]
(§3) The expression levels of Snail, mature CatL, STAT-3 and Phospho-STAT-3 (pstat-3) were determined with western blot. […] Mature Cathepsin L activity was determined by gelatin zymography. Cathepsin L activity was quantified with densitometry of each band on the gel. […]

[4] = system: p-STAT-3; assay: Western blot analysis, phospho-STAT-3; assay type: cell-based, human; conditions: 5 μM Z-FY-CHO, 72 h
Experimental: as §1, §2, §3

[5] = system: rat bone cells; conditions: by inhibiting collagen degradation; cited from earlier work
[6] = molecular target: T1, Cathepsin L (CatL) (Homo sapiens, UniProt P07711); assay: Cathepsin gelatin zymography of conditioned media; assay type: cell-based; conditions: 5 μM Z-FY-CHO, 72 h; vs untreated control
T1 construct: endogenous in cells; host or cells: conditioned media of ARCaP-E Snail, MCF-7 Snail and C4-2 cells
T1 sequence (P07711 114-333): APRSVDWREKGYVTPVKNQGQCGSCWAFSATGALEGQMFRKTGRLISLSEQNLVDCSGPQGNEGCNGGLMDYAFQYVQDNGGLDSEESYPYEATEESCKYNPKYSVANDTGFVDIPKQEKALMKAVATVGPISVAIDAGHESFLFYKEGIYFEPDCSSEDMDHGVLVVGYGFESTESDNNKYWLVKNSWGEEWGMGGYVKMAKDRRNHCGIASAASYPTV
Experimental: We also performed cathepsin zymography to detect cathepsin activity in untreated control and MSKE treatments. ARCaPE and MCF-7 cells over expressing Snail were treated with MSKE for 3 days using the condition media from the […]. With these steps we were able to detect higher CatL activity (enzymes hydrolyze the embedded substrate in situ, and proteolytic activity can be visualized as cleared bands) in cells overexpressing Snail as compared to Neo empty vector control cells.
We utilized the cathepsin zymography technique as previously described. Briefly, 1 mL of conditioned media (CM) containing 0.1 mM leupeptin was concentrated utilizing vivaspin tube (GE Health Care). The concentrated CM was diluted by adding […] of the sample to 45 μl of 1× RIPA buffer followed by determination of the protein concentration using BCA protein assay kit. […] Cathepsin activity was subsequently quantified using densitometry (NIH Image J). […]
as §3

[7] = system: Snail; assay: Western blot analysis, Snail; assay type: cell-based, human; conditions: 5 μM Z-FY-CHO, 72 h
Experimental: as §1, §2, §3

[8] = system: MCF-7 and ARCaP-E cells over expressing Snail; assay: In vitro cell migration assay (collagen I transwell); assay type: cell-based, human; conditions: 5 μM Z-FY-CHO for 72 hours; migration 5 hours
Experimental: We utilized Costar 24-well plates containing a polycarbonate filter insert with an 8-μm pore size, to coat with 4.46 μg/μl rat tail collagen I on the outside for 24 h at 4° C. 5×10^4 cells were plated in the upper chamber containing RPMI supplemented with 0.1% fetal bovine serum (FBS) while the lower chamber contained RPMI supplemented with 10% FBS. After 5 h, cells that migrated to the bottom of the insert were fixed, stained with 0.05% crystal violet, and counted to obtain the relative cell migration.
FIGS. 4A and 4B show MCF-7 and ARCaP-E cells over expressing Snail treated with 5 μg/mL, 20 μg/mL Muscadine Grape Skin Extract (MSKE) and 5 μM Z-FY-CHO for 72 hours. 5×10^4 cells were plated on transwell coated with Type-I collagen as described in the materials and methods section. The cells were allowed to migrate for 5 hours and then fixed and stained. The number of cells that migrated through the transwell membranes was determined by counting at least 4 random microscopic fields.

Molecule	cell invasion [1]	formation of osteoclasts ([2]; 5 μM Z-FY-CHO, prostate and breast cancer cells overexpressing Snail co-cultured with macrophages)	Cat L expression [3]	STAT-3 activation (p-STAT-3) [4]	bone resorption [5]	amount of active CatL (CatL activity) [6]	Snail expression [7]	cell migration [8]	formation of osteoclasts ([2]; 50 ng/ml OPG)
O=C[C@H](Cc1ccc(O)cc1)NC(=O)[C@H](Cc1ccccc1)NC(=O)OCc1ccccc1 [Z-FY-CHO] (Cbz-Phe-Tyr-aldehyde)	abrogated; also recorded: decrease	significantly decrease; also recorded: significantly abrogated	decrease	decrease	inhibit	significantly decreased; also recorded: decrease	decrease	abrogated; also recorded: decrease	–
B1	–	–	–	–	–	–	–	–	significantly decreased

Reference: patent publication US20160067298A1, “MUSCADINE GRAPE SKIN EXTRACT AS TREATMENT FOR BONE METASTATIC CANCER” (Clark Atlanta University, priority 2014, published 2016)
